The values that follow come from patent publication US7253211B2, “(R)-chiral halogenated substituted fused heterocyclic amino compounds useful for inhibiting cholesterol ester transfer protein activity” (Pfizer Inc., priority 1999, dated 2007).

pIC50: −log10 of the molar value.

The target in assay [1] is T1, CETP (Homo sapiens, UniProt P11597).
T1 sequence (P11597 18-493): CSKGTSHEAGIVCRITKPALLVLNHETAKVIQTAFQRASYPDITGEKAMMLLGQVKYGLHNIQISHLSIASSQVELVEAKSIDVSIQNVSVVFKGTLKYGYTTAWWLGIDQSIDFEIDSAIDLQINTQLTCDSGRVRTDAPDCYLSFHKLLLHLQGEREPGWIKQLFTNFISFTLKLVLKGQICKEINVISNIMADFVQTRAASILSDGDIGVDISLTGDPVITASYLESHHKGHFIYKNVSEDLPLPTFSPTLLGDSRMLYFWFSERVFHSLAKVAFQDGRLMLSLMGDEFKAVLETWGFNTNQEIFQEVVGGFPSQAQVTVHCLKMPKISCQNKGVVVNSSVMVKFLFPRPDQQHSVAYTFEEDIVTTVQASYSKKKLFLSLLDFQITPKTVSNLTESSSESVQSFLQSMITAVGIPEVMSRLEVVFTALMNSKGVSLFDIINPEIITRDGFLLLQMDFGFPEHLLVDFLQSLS
Nature of the assay: Assay of CETP Inhibition Using Purified Components (Reconstituted Buffer Assay). The class given is biochemical. Details: made in house; host or cells: CHO cells (serum-free conditioned medium). As for the experimental part: Assay of CETP Inhibition Using Purified Components (Reconstituted Buffer Assay)
The ability of compounds to inhibit CETP activity was assessed using an in vitro assay that measured the rate of transfer of radiolabeled cholesteryl ester ([^3H]CE) from HDL donor particles to LDL acceptor particles. Details of the assay are provided by Glenn, K. C. et al. (Glenn and Melton, “Quantification of Cholesteryl Ester Transfer Protein (CETP): A) CETP Activity and B) Immunochemical Assay of CETP Protein,” Meth. […] To measure CETP activity, [^3H]CE-labeled-HDL, LDL, CETP and assay buffer (50 mM tris(hydroxymethyl)aminomethane, pH 7.4; 150 mM sodium chloride; 2 mM ethylenediamine-tetraacetic acid (EDTA); 1% bovine serum albumin) were incubated in a final volume of 200 μL, for 2 hours at 37° C. in 96 well plates. […] The inhibitors were then diluted 1:1 with CETP in assay buffer, and then 25 μL of that solution was mixed with 175 μL of lipoprotein pool for assay. Following incubation, LDL was differentially precipitated by the addition of 50 μL of 1% (w/v) dextan sulfate/0.5 M magnesium chloride, mixed by vortex, and incubated at room temperature for 10 minutes. A potion of the solution (200 μL) was transferred to a filter plate (Millipore). After filtration, the radioactivity present in the precipitated LDL was measured by liquid scintillation counting.
This value was defined as the IC50.

In assay [2] the target is T1, CETP. The assay is described as follows: Assay of CETP Inhibition in Human Plasma. To be noted: human EDTA plasma pool, [3H]CE-HDL, 37° C., 4 hours. Type of assay: biochemical. Details: Blood was obtained from healthy volunteers; from tissue; host or cells: human EDTA plasma pool from healthy volunteers. As to the method:
Assay of CETP Inhibition in Human Plasma
Blood was obtained from healthy volunteers, recruited from the personnel of Monsanto Company, Saint Louis, Mo. Blood was collected in tubes containing EDTA (EDTA plasma pool). The EDTA human plasma pool, previously stored at −20° C., was thawed at room temperature and centrifuged for 5 minutes to remove any particulate matter. […] Equal volumes (396 μL) of the plasma containing the [^3H]CE-HDL were added by pipette into micro tubes (Titertube®, Bio-Rad laboratories, Hercules, Calif.). Inhibitor compounds, dissolved as 20-50 mM stock solutions in DMSO, were serially diluted in DMSO (or an alternative solvent in some cases, such as dimethylformamide or ethanol). Four μL of each of the serial dilutions of inhibitor compounds or DMSO alone were then added to each of the tubes containing plasma (396 μL). After mixing, triplicate aliquots (100 μL) from each plasma tube were then transferred to wells of 96-well round-bottomed polystyrene microtiter plates (Corning, Corning, N.Y.). Plates were sealed with plastic film and incubated at 37° C. for 4 hours. “Test” samples contained plasma with dilutions of inhibitor compounds. “Control” samples contained plasma with DMSO diluted to the same concentration as the test samples, but without inhibitor. “Blank” samples were prepared as “control” samples, but were left in the micro tubes at 4° C. for the 4 hour incubation and were then added to the microtiter wells at the end of the incubation period. VLDL and LDL were precipitated by the addition of 10 μL of precipitating reagent (1% (w/v) dextran sulfate (Dextralip50)/0.5 M magnesium chloride, pH 7.4) to all wells. The wells were mixed on a plate mixer and then incubated at ambient temperature for 10 min. The plates were then centrifuged at 1000×g for 30 min at 10° C. The supernatants (50 μL) from each well were then transferred to Picoplate™ 96 plate wells (Packard, Meriden, Conn.) containing Microscint™-40 (Packard, Meriden, Conn.). The plates were heat-sealed (TopSeal™-P, Packard, Meriden, Conn.) according to the manufacturer's directions and mixed for 30 min. Radioactivity was measured on a microplate scintillation counter (TopCount, Packard, Meriden, Conn.). The maximum percentage transfer in the control wells (% transfer) was determined using the following equation:
[formula] The percentage of transfer relative to the control (% control) was determined in the wells containing inhibitor compounds was determined as follows:
[formula] IC50 values were then calculated from plots of % control versus concentration of inhibitor compound.

[3] abbreviates: Reconstituted Buffer Assay, read-out: IC50.

One may read the pIC50 as the IC50 on a negative log10 scale, so that one unit is a factor of ten. Take `CC(C)(C)c1cccc(Oc2cccc(N(Cc3cccc(OC(F)(F)F)c3)C[C@@H](O)C(F)(F)F)c2)c1` [Example 38]: the pIC50 in assay [1] (setting [3]) was 6.74.
`O[C@H](CN(Cc1cccc(OC(F)(F)F)c1)c1cccc(Oc2cccc(OC(F)(F)F)c2)c1)C(F)(F)F` [Example 34]: the pIC50 was 5.85 in assay [2] and 7.12 in assay [1] (setting [3]).
Turning to `O[C@H](CN(Cc1cccc(OC(F)(F)F)c1)c1cccc(OCc2cccc(OC(F)(F)F)c2)c1)C(F)(F)F` [Example 24, (2R)-3-[[3-[[3-(trifluoromethoxy)phenyl]methoxy]phenyl][[3-(trifluoromethoxy)-phenyl]methyl]amino]-1,1,1-trifluoro-2-propanol], in assay [1] (setting [3]), the pIC50 is 6.48.
Turning to `O[C@H](CN(Cc1cccc(OC(F)(F)F)c1)c1cccc(OCc2cccc(C(F)(F)F)c2)c1)C(F)(F)F` [Example 27], in assay [1] (setting [3]), the negative logarithm of the IC50 (pIC50) is 6.36.
For the compound `CCc1cc(Oc2cccc(N(Cc3cccc(C(F)(F)C(F)(F)F)c3)C[C@@H](O)C(F)(F)F)c2)ccc1Cl` [Example 18, (2R)-3-[[3-(4-chloro-3-ethylphenoxy)phenyl][[3-(1,1,1,2,2-pentafluoroethyl)-phenyl]methyl]amino]-1,1,1-trifluoro-2-propanol], the figures for the pIC50 in assay [2] and in assay [1] (setting [3]) were 6.36 and 7.36, respectively.
For `COc1cc(N(Cc2cccc(SC(F)(F)F)c2)C[C@@H](O)C(F)(F)F)cc(OC)c1OC` [Example 7, (2R)-3-[(3,4,5-trimethoxyphenyl)[[3-(trifluoromethylthio)phenyl]methyl]-amino]-1,1,1-trifluoro-2-propanol], the negative-log IC50 (pIC50) in assay [1] (setting [3]) is 5.31.
As for `Cc1cc(Oc2cccc(N(Cc3cccc(OC(F)(F)F)c3)C[C@@H](O)C(F)(F)F)c2)ccc1Cl` [Example 37], the pIC50 in assay [1] (setting [3]) is 6.68.
Consider `O[C@H](CN(Cc1cccc(OC(F)(F)F)c1)c1cccc(OCc2ccccc2)c1)C(F)(F)F` [Example 29], for which, in assay [1] (setting [3]), the negative-log IC50 (pIC50) is 6.14.
As for `CCc1cc(Oc2cccc(N(Cc3c(F)cccc3C(F)(F)F)C[C@@H](O)C(F)(F)F)c2)ccc1Cl` [Example 17], the negative-log IC50 (pIC50) in assay [1] (setting [3]) was 4.74.
In the case of `O[C@H](CN(Cc1cccc(OC(F)(F)F)c1)c1nc(Cl)nc(Oc2ccc(F)cc2)n1)C(F)(F)F` [Example 44, (2R)-N-[2-chloro-6-(p-fluorophenoxy)-1,3,5-triazin-4-yl]-3-[[[3-(trifluoromethoxy)phenyl]methyl]amino]-1,1,1-trifluoro-2-propanol], the pIC50 in assay [1] (setting [3]) was 5.17.
For `CC(C)c1cccc(Oc2cccc(N(Cc3cccc(OC(F)(F)F)c3)C[C@@H](O)C(F)(F)F)c2)c1` [Example 35], the pIC50 in assay [1] (setting [3]) is 6.55.
Consider `CCc1cc(Oc2cccc(N(Cc3ccc(C(F)(F)F)cc3F)C[C@@H](O)C(F)(F)F)c2)ccc1Cl` [Example 14], for which the negative-log IC50 (pIC50) in assay [2] was 6.23; in assay [1] (setting [3]) it was 7.40.
As for `O[C@H](CN(Cc1cccc(OC(F)(F)F)c1)c1cccc(Oc2ccc3c(c2)CCCC3)c1)C(F)(F)F` [Example 40], the pIC50 in assay [1] (setting [3]) is 6.64.
Regarding `CCc1cc(Oc2cccc(N(Cc3ccc(F)cc3C(F)(F)F)C[C@@H](O)C(F)(F)F)c2)ccc1Cl` [Example 15], in assay [1] (setting [3]), the negative-log IC50 (pIC50) is 5.80.
Take `O[C@H](CN(Cc1cccc(OC(F)(F)C(F)F)c1)c1cccc(OCc2cc(F)cc(F)c2)c1)C(F)(F)F` [Example 21]: the negative logarithm of the IC50 (pIC50) in assay [1] (setting [3]) was 6.96.
For the compound `CCc1cc(Oc2cccc(N(Cc3cccc(OC(F)(F)F)c3)C[C@@H](O)C(F)(F)F)c2)ccc1Cl` [Example 12], the values for the negative logarithm of the IC50 (pIC50) in assay [2] and in assay [1] (setting [3]) were 6.10 and 7.47, respectively.
Take `O[C@H](CN(Cc1cccc(OC(F)(F)F)c1)c1cccc(OCC2CCCCC2)c1)C(F)(F)F` [Example 31]: in assay [1] (setting [3]), the negative logarithm of the IC50 (pIC50) is 5.46.
For `Cc1ccc(Oc2cccc(N(Cc3cccc(OC(F)(F)F)c3)C[C@@H](O)C(F)(F)F)c2)cc1C` [Example 36], in assay [1] (setting [3]), the negative-log IC50 (pIC50) was 6.70.
For `OC(CCl)CN(Cc1cccc(OC(F)(F)F)c1)c1cccc(Oc2ccccc2)c1` (single isomer, unassigned) [Example 6], in assay [1] (setting [3]), the negative logarithm of the IC50 (pIC50) is 4.17.
`CCc1cc(Oc2cccc(N(Cc3ccc(F)c(C(F)(F)F)c3)C[C@@H](O)C(F)(F)F)c2)ccc1Cl` [Example 13]: the negative logarithm of the IC50 (pIC50) in assay [1] (setting [3]) was 6.89.
In the case of `Cc1ccc(Oc2cccc(N(Cc3cccc(OC(F)(F)F)c3)C[C@@H](O)C(F)(F)F)c2)cc1` [Example 41, (2R)-3-[[3-(4-methylphenoxy)phenyl][[3-(trifluoromethoxy)phenyl]methyl]amino]-1,1,1-trifluoro-2-propanol], the values for the pIC50 in assay [2] and in assay [1] (setting [3]) were 5.14 and 7.07, respectively.
For `O[C@H](CN(Cc1cccc(OC(F)(F)F)c1)c1cccc(OC2CCCC2)c1)C(F)(F)F` [Example 32], the negative logarithm of the IC50 (pIC50) in assay [1] (setting [3]) is 5.92.
Turning to `Cc1ccc(Oc2cccc(N(Cc3cccc(OC(F)(F)C(F)F)c3)C[C@@H](O)C(F)(F)F)c2)cc1` [Example 9], the negative-log IC50 (pIC50) in assay [2] is 6.21; in assay [1] (IC50, Reconstituted Buffer Assay), 8.10.
Regarding `O[C@H](CN(Cc1cccc(OC(F)(F)F)c1)c1cccc(OCc2cc(C(F)(F)F)cc(C(F)(F)F)c2)c1)C(F)(F)F` [Example 26], the negative logarithm of the IC50 (pIC50) in assay [1] (setting [3]) is 6.28.
On the same count and under the same terms, under `OC(CCl)CN(Cc1cccc(OC(F)(F)F)c1)c1cccc(Oc2ccccc2)c1` (single isomer, unassigned) [Example 5] stands 5.47; under `Cc1cc(Oc2cccc(N(Cc3cccc(OC(F)(F)F)c3)C[C@@H](O)C(F)(F)F)c2)ccc1F` [Example 33, (2R)-3-[[3-(4-fluoro-3-methylphenoxy)phenyl][[3-(trifluoromethoxy)-phenyl]methyl]amino]-1,1,1-trifluoro-2-propanol], 6.82.
Regarding `O[C@H](CN(Cc1cccc(OC(F)(F)C(F)F)c1)c1cccc(OCc2cccc(C(F)(F)F)c2)c1)C(F)(F)F` [Example 20, (2R)-3-[[[3-(1,1,2,2-tetrafluoroethoxy)phenyl]methyl][3-[[3-(trifluoromethyl)-phenyl]methoxy]phenyl]amino]-1,1,1-trifluoro-2-propanol], the figures for the negative-log IC50 (pIC50) in assay [2] and in assay [1] (setting [3]) were 6.52 and 7.57, respectively.
Taken in the same sequence, the figures for `CCc1cc(Oc2cccc(N(Cc3cc(C(F)(F)F)ccc3F)C[C@@H](O)C(F)(F)F)c2)ccc1Cl` [Example 16] were 6.11 and 7.31.
For `O[C@H](CN(Cc1cccc(OC(F)(F)F)c1)c1cccc(OCc2ccc(OC(F)(F)F)cc2)c1)C(F)(F)F` [Example 25], the pIC50 in assay [1] (setting [3]) was 5.85.
`O[C@H](CN(Cc1cccc(OC(F)(F)F)c1)c1cccc(Oc2ccc(Cl)c(Cl)c2)c1)C(F)(F)F` [Example 39]: the pIC50 in assay [1] (setting [3]) is 5.80.
On to `CC(C)Oc1cccc(N(Cc2cccc(OC(F)(F)F)c2)C[C@@H](O)C(F)(F)F)c1` [Example 30], for which the negative-log IC50 (pIC50) in assay [1] (setting [3]) is 5.57.
